Results published in ChEMBL document CHEMBL3885861, “Open TG-GATES”.

Organism: Rattus norvegicus
Assay: Open TG-GATES - Regimen: Single
Format: toxicity, organism-based, Sprague-Dawley
Design: regimen Single, gender Male, age 6 weeks
Conditions: in vivo, po, 400 mg/kg, route gavage, dose level High; for APTT / Bas / Eos / Fbg / Hb / Ht / Lym / MCH / MCHC / MCV / Mono / Neu / PT / Plat / RBC / Ret / WBC: tissue Blood; for KIDNEY_L / KIDNEY_R / KIDNEY_TOTAL: tissue Kidney; for LIVER: tissue Liver; for A/G / ALP / ALT / AST / BUN / CRE / Ca / Cl / DBIL / GLC / IP / K / LDH / Na / PL / RALB / TBIL / TC / TG / TP / gamma-GTP: tissue Plasma

Cc1cccc(C)c1OCC(C)N (configuration not stated) [MEXILETINE]
TERMINAL_BW (3 h): 221.2 g | APTT (3 h): 21.7 s | Bas (3 h): 0% | Eos (3 h): 1% | Fbg (3 h): 292.2 mg/dL | Hb (3 h): 12.9 g/dL | Ht (3 h): 39.9% | Lym (3 h): 75.8% | MCH (3 h): 20.5 pg | MCHC (3 h): 32.4% | MCV (3 h): 63.2 fL | Mono (3 h): 2.4% | Neu (3 h): 20.6% | PT (3 h): 16.5 s | Plat (3 h): 108.6 x10_4/uL | RBC (3 h): 632.4 x10_4/ul | Ret (3 h): 7.4% | WBC (3 h): 62.3 x10_2/uL | KIDNEY_L (3 h): 1 g | KIDNEY_R (3 h): 1.1 g | KIDNEY_TOTAL (3 h): 2.1 g | LIVER (3 h): 9.9 g | A/G (3 h): 1.3 | ALP (3 h): 1366.2 IU/L | ALT (3 h): 58.8 IU/L | AST (3 h): 87.6 IU/L | BUN (3 h): 12.2 mg/dL | CRE (3 h): 0.1 mg/dL | Ca (3 h): 10.4 mg/dL | Cl (3 h): 106 meq/L | DBIL (3 h): 0 mg/dL | GLC (3 h): 174.4 mg/dL | IP (3 h): 9.6 mg/dL | K (3 h): 4 meq/L | LDH (3 h): 168 IU/L | Na (3 h): 141 meq/L | PL (3 h): 122.6 mg/dL | RALB (3 h): 3 g/dL | TBIL (3 h): 0.028 mg/dL | TC (3 h): 72.6 mg/dL | TG (3 h): 46 mg/dL | TP (3 h): 5.4 g/dL | gamma-GTP (3 h): 1 IU/L | TERMINAL_BW (6 h): 214.8 g | APTT (6 h): 21.8 s | Bas (6 h): 0% | Eos (6 h): 0.6% | Fbg (6 h): 411.6 mg/dL | Hb (6 h): 13.6 g/dL | Ht (6 h): 42.2% | Lym (6 h): 71.2% | MCH (6 h): 20.7 pg | MCHC (6 h): 32.4% | MCV (6 h): 64 fL | Mono (6 h): 2% | Neu (6 h): 25% | PT (6 h): 16.1 s | Plat (6 h): 109.7 x10_4/uL | RBC (6 h): 660.2 x10_4/ul | Ret (6 h): 7.1% | WBC (6 h): 71.5 x10_2/uL | KIDNEY_L (6 h): 0.9 g | KIDNEY_R (6 h): 0.9 g | KIDNEY_TOTAL (6 h): 1.9 g | LIVER (6 h): 9.6 g | A/G (6 h): 1.2 | ALP (6 h): 1714.4 IU/L | ALT (6 h): 52 IU/L | AST (6 h): 84.2 IU/L | BUN (6 h): 10.2 mg/dL | CRE (6 h): 0.2 mg/dL | Ca (6 h): 10.3 mg/dL | Cl (6 h): 107.2 meq/L | DBIL (6 h): 0 mg/dL | GLC (6 h): 186.8 mg/dL | IP (6 h): 8.5 mg/dL | K (6 h): 4.2 meq/L | LDH (6 h): 190.4 IU/L | Na (6 h): 141.8 meq/L | PL (6 h): 133.2 mg/dL | RALB (6 h): 3 g/dL | TBIL (6 h): 0.02 mg/dL | TC (6 h): 80.4 mg/dL | TG (6 h): 34.8 mg/dL | TP (6 h): 5.7 g/dL | gamma-GTP (6 h): 1.6 IU/L | TERMINAL_BW (9 h): 217.6 g | APTT (9 h): 23.3 s | Bas (9 h): 0% | Eos (9 h): 0.8% | Fbg (9 h): 309.4 mg/dL | Hb (9 h): 12.7 g/dL | Ht (9 h): 39.4% | Lym (9 h): 72.8% | MCH (9 h): 20.3 pg | MCHC (9 h): 32.2% | MCV (9 h): 63 fL | Mono (9 h): 2.6% | Neu (9 h): 23% | PT (9 h): 16.1 s | Plat (9 h): 109.3 x10_4/uL | RBC (9 h): 626.4 x10_4/ul | Ret (9 h): 7.6% | WBC (9 h): 76 x10_2/uL | KIDNEY_L (9 h): 1 g | KIDNEY_R (9 h): 1 g | KIDNEY_TOTAL (9 h): 2 g | LIVER (9 h): 9.5 g | A/G (9 h): 1.3 | ALP (9 h): 1243.2 IU/L | ALT (9 h): 42.8 IU/L | AST (9 h): 65 IU/L | BUN (9 h): 8.6 mg/dL | CRE (9 h): 0.1 mg/dL | Ca (9 h): 10.3 mg/dL | Cl (9 h): 107.2 meq/L | DBIL (9 h): 0 mg/dL | GLC (9 h): 186 mg/dL | IP (9 h): 9.1 mg/dL | K (9 h): 4.2 meq/L | LDH (9 h): 146.4 IU/L | Na (9 h): 141.4 meq/L | PL (9 h): 144.8 mg/dL | RALB (9 h): 3 g/dL | TBIL (9 h): 0.026 mg/dL | TC (9 h): 81.4 mg/dL | TG (9 h): 45.4 mg/dL | TP (9 h): 5.4 g/dL | gamma-GTP (9 h): 1.4 IU/L | TERMINAL_BW (24 h): 225.6 g | APTT (24 h): 20.4 s | Bas (24 h): 0% | Eos (24 h): 1% | Fbg (24 h): 313.6 mg/dL | Hb (24 h): 13.4 g/dL | Ht (24 h): 41% | Lym (24 h): 80% | MCH (24 h): 20.5 pg | MCHC (24 h): 32.8% | MCV (24 h): 62.5 fL | Mono (24 h): 2.6% | Neu (24 h): 15.6% | PT (24 h): 16.3 s | Plat (24 h): 106 x10_4/uL | RBC (24 h): 656.8 x10_4/ul | Ret (24 h): 7.1% | WBC (24 h): 76.9 x10_2/uL | KIDNEY_L (24 h): 1 g | KIDNEY_R (24 h): 1 g | KIDNEY_TOTAL (24 h): 2 g | LIVER (24 h): 10.5 g | A/G (24 h): 1.2 | ALP (24 h): 1526.6 IU/L | ALT (24 h): 50.2 IU/L | AST (24 h): 71.4 IU/L | BUN (24 h): 14.6 mg/dL | CRE (24 h): 0.2 mg/dL | Ca (24 h): 10.6 mg/dL | Cl (24 h): 105 meq/L | DBIL (24 h): 0 mg/dL | GLC (24 h): 182.2 mg/dL | IP (24 h): 8.2 mg/dL | K (24 h): 4.2 meq/L | LDH (24 h): 170.6 IU/L | Na (24 h): 142.6 meq/L | PL (24 h): 163 mg/dL | RALB (24 h): 3.1 g/dL | TBIL (24 h): 0.004 mg/dL | TC (24 h): 89 mg/dL | TG (24 h): 120.2 mg/dL | TP (24 h): 5.6 g/dL | gamma-GTP (24 h): 1.6 IU/L
